Measurements as given in patent US20240415914A1, “Water Dispersible Cannabinoid Compositions” (priority 2021, published 2024).

Assay: Stability of cannabinoid and Vitamin E components of Beverage 1 (AB White) stored at 8° C. and 21-25° C., LCMSMS over 570 days
Format: physicochemical
Details: for Stability in AB White, 8° C. (content by LCMSMS): beverage stored at 8° C.; for Stability in AB White, 21-25° C. (content by LCMSMS): beverage stored at 21-25° C.
Description: The LCMSMS was calibrated for 0-1000 ng/ml cannabinoids with the same resin material used in the preparation of the concentrates. At each time period, 100 ml of beverage was diluted with 10 ml of methanol and injected into the LCMSMS for analysis.

C=C(C)[C@@H]1CCC(C)=C[C@H]1c1c(O)cc(CCC)cc1O [CBDV, cannabidivarin]
0.152 µg/mL: Stability in AB White, 8° C. (content by LCMSMS) (day 26) | Stability in AB White, 21-25° C. (content by LCMSMS) (day 12)
0.151 µg/mL: Stability in AB White, 8° C. (content by LCMSMS) (day 29) | Stability in AB White, 21-25° C. (content by LCMSMS) (day 15) | Stability in AB White, 21-25° C. (content by LCMSMS) (day 18) | Stability in AB White, 21-25° C. (content by LCMSMS) (day 30)
0.147 µg/mL: Stability in AB White, 8° C. (content by LCMSMS) (day 2) | Stability in AB White, 8° C. (content by LCMSMS) (day 5) | Stability in AB White, 8° C. (content by LCMSMS) (day 24) | Stability in AB White, 8° C. (content by LCMSMS) (day 210) | Stability in AB White, 21-25° C. (content by LCMSMS) (day 10) | Stability in AB White, 21-25° C. (content by LCMSMS) (day 29)
0.150 µg/mL: Stability in AB White, 8° C. (content by LCMSMS) (day 0) | Stability in AB White, 8° C. (content by LCMSMS) (day 11) | Stability in AB White, 8° C. (content by LCMSMS) (day 12) | Stability in AB White, 8° C. (content by LCMSMS) (day 15) | Stability in AB White, 8° C. (content by LCMSMS) (day 150) | Stability in AB White, 8° C. (content by LCMSMS) (day 180) | Stability in AB White, 21-25° C. (content by LCMSMS) (day 0) | Stability in AB White, 21-25° C. (content by LCMSMS) (day 11) | Stability in AB White, 21-25° C. (content by LCMSMS) (day 17)
0.145 µg/mL: Stability in AB White, 8° C. (content by LCMSMS) (day 240) | Stability in AB White, 8° C. (content by LCMSMS) (day 360) | Stability in AB White, 8° C. (content by LCMSMS) (day 450) | Stability in AB White, 21-25° C. (content by LCMSMS) (day 8) | Stability in AB White, 21-25° C. (content by LCMSMS) (day 16) | Stability in AB White, 21-25° C. (content by LCMSMS) (day 24) | Stability in AB White, 21-25° C. (content by LCMSMS) (day 25) | Stability in AB White, 21-25° C. (content by LCMSMS) (day 240)
0.143 µg/mL: Stability in AB White, 8° C. (content by LCMSMS) (day 60) | Stability in AB White, 8° C. (content by LCMSMS) (day 270) | Stability in AB White, 8° C. (content by LCMSMS) (day 300) | Stability in AB White, 8° C. (content by LCMSMS) (day 390) | Stability in AB White, 8° C. (content by LCMSMS) (day 480) | Stability in AB White, 21-25° C. (content by LCMSMS) (day 90) | Stability in AB White, 21-25° C. (content by LCMSMS) (day 420) | Stability in AB White, 21-25° C. (content by LCMSMS) (day 480)
0.139 µg/mL: Stability in AB White, 8° C. (content by LCMSMS) (day 540) | Stability in AB White, 21-25° C. (content by LCMSMS) (day 510)
0.148 µg/mL: Stability in AB White, 8° C. (content by LCMSMS) (day 8) | Stability in AB White, 8° C. (content by LCMSMS) (day 10) | Stability in AB White, 8° C. (content by LCMSMS) (day 16) | Stability in AB White, 8° C. (content by LCMSMS) (day 30) | Stability in AB White, 21-25° C. (content by LCMSMS) (day 2) | Stability in AB White, 21-25° C. (content by LCMSMS) (day 9) | Stability in AB White, 21-25° C. (content by LCMSMS) (day 19) | Stability in AB White, 21-25° C. (content by LCMSMS) (day 22) | Stability in AB White, 21-25° C. (content by LCMSMS) (day 23) | Stability in AB White, 21-25° C. (content by LCMSMS) (day 270)
0.138 µg/mL: Stability in AB White, 8° C. (content by LCMSMS) (day 510) | Stability in AB White, 8° C. (content by LCMSMS) (day 570) | Stability in AB White, 21-25° C. (content by LCMSMS) (day 570)
0.140 µg/mL: Stability in AB White, 21-25° C. (content by LCMSMS) (day 540)
0.144 µg/mL: Stability in AB White, 8° C. (content by LCMSMS) (day 120) | Stability in AB White, 8° C. (content by LCMSMS) (day 420) | Stability in AB White, 21-25° C. (content by LCMSMS) (day 5) | Stability in AB White, 21-25° C. (content by LCMSMS) (day 330) | Stability in AB White, 21-25° C. (content by LCMSMS) (day 450)
0.142 µg/mL: Stability in AB White, 21-25° C. (content by LCMSMS) (day 210) | Stability in AB White, 21-25° C. (content by LCMSMS) (day 300)
0.146 µg/mL: Stability in AB White, 8° C. (content by LCMSMS) (day 1) | Stability in AB White, 8° C. (content by LCMSMS) (day 3) | Stability in AB White, 8° C. (content by LCMSMS) (day 9) | Stability in AB White, 8° C. (content by LCMSMS) (day 17) | Stability in AB White, 8° C. (content by LCMSMS) (day 18) | Stability in AB White, 8° C. (content by LCMSMS) (day 90) | Stability in AB White, 8° C. (content by LCMSMS) (day 330) | Stability in AB White, 21-25° C. (content by LCMSMS) (day 150) | Stability in AB White, 21-25° C. (content by LCMSMS) (day 360) | Stability in AB White, 21-25° C. (content by LCMSMS) (day 390)
0.149 µg/mL: Stability in AB White, 8° C. (content by LCMSMS) (day 19) | Stability in AB White, 8° C. (content by LCMSMS) (day 22) | Stability in AB White, 8° C. (content by LCMSMS) (day 23) | Stability in AB White, 8° C. (content by LCMSMS) (day 25) | Stability in AB White, 21-25° C. (content by LCMSMS) (day 1) | Stability in AB White, 21-25° C. (content by LCMSMS) (day 3) | Stability in AB White, 21-25° C. (content by LCMSMS) (day 26) | Stability in AB White, 21-25° C. (content by LCMSMS) (day 60)
0.141 µg/mL: Stability in AB White, 21-25° C. (content by LCMSMS) (day 120) | Stability in AB White, 21-25° C. (content by LCMSMS) (day 180)
